The text below walks through data of patent publication US9510594B2, “Use of SDHI fungicides on conventionally bred ASR-tolerant, stem canker resistant and/or frog-eye leaf spot resistant soybean varieties” (BAYER INTELLECTUAL PROPERTY GMBH, priority 2011, dated 2016).

SMILES strings stand for the structures.

The subject of this experiment is Phakopsora pachyrhizi. Briefly: Soybean rust greenhouse test: preventive spray of young soybean plants, ABBOTT % efficacy, Colby comparison. The format is in vivo. Particulars: for Efficacy: fungicide alone, susceptible soybean variety (Miyagishirome), evaluated 11 days after inoculation. The method, then: One susceptible (Miyagishirome) and soybean varieties tolerant to soybean rust (Phakospora pachyrhizi) (TMG 801 and TMG 803) were cultivated in greenhouse up to 1.5-leaf stage. A suitable preparation of SDHI fungicide was produced by mixing 1 part per weight of the SDHI ingredient with 28.5 parts by weight of acetone as solvent and 1.5 parts by weight of polyoxyethylene alkyl phenyl ether as emulsifier. The concentrate was diluted with water to the desired concentrations.
Young plants of the susceptible and tolerant soybean varieties were sprayed with the preparation of the SDHI fungicide at the stated rate of application to evaluate the activity in controlling Phakopsora pachyrhizi.
One day after spraying, soybean plants were inoculated with an aqueous spore suspension of the causal agent of soybean rust (Phakopsora pachyrhizi). Plants were then placed in a greenhouse at approximately 20 ° C. and a relative atmospheric humidity of approximately 80%. The following trial schedule was applied:
Plants were evaluated 11 days after inoculation. The percentage of infected leaf area was determined visually. The results were calculated according to ABBOTT (% efficacy). 0% means an efficacy which corresponds to that of the control, while an efficacy of 100% means that no disease was observed.
The expected efficiencies for the SDHI fungicide and ASR-tolerant variety combinations were determined according to Colby's formula and compared to the observed efficiencies (Colby, S. R. (1967) Calculating synergistic and antagonistic responses of herbicide combinations, Weeds, 15: 20-22): E=x+y−xy/100
Wherein E is the expected efficacy as a percent of the check when using the combination of a fungicide and ASR-tolerant variety; x is the efficacy of the percent check when using the fungicide; y is the efficacy of the percent check when using the ASR-tolerant variety.
By Comparison of the expected efficacy and the observed efficacy, the synergistic effect can be discerned. If the observed percent efficacy is higher than the calculated expected percent efficacy there is a synergistic effect.

Setting [1] is: fungicide + tolerant soybean variety TMG 801, 0.2 ppm a.i.
Where [2] appears, read: fungicide + tolerant soybean variety TMG 801, 1 ppm a.i.
Where [3] appears, read: fungicide + tolerant soybean variety TMG 801, 5 ppm a.i.
Setting [4] is: fungicide + tolerant soybean variety TMG 801, 10 ppm a.i.
Setting [5] is: fungicide + tolerant soybean variety TMG 801, 25 ppm a.i.
The mark [6] stands for this setting: fungicide + tolerant soybean variety TMG 801, 50 ppm a.i.
Where [7] appears, read: fungicide + tolerant soybean variety TMG 803, 0.2 ppm a.i.
[8] abbreviates: fungicide + tolerant soybean variety TMG 803, 1 ppm a.i.
The mark [9] stands for this setting: fungicide + tolerant soybean variety TMG 803, 5 ppm a.i.
The mark [10] stands for this setting: fungicide + tolerant soybean variety TMG 803, 10 ppm a.i.
[11] abbreviates: fungicide + tolerant soybean variety TMG 803, 25 ppm a.i.
The mark [12] stands for this setting: fungicide + tolerant soybean variety TMG 803, 50 ppm a.i.
Where [13] appears, read: fungicide + tolerant soybean variety TMG 803, 100 ppm a.i.

Take `Cc1nn(C)c(F)c1C(=O)Nc1ccccc1C(C)CC(C)C` (stereo not drawn) [Penflufen, N-[2-(1,3-dimethylbutyl)phenyl]-5-fluor-1,3-dimethyl-1H-pyrazole-4-carboxamide]: the “deviation of the actual efficacy from the expected value” (10 ppm a.i., TMG 801 or TMG 803) was “highest deviations of the actual efficacy from the expected value”. The Actual efficacy runs as follows: under setting [1], 65%; under setting [2], 70%; under setting [3], 70%; under setting [4], 92%; under setting [5], 98%; under setting [6], 100%. Further, the Actual efficacy was 70% under setting [7]; 65% under setting [8]; 95% under setting [9]; 98% under setting [10]; 97% under setting [11]; 100% under setting [12]. For the same molecule, the “Expected value, calculated using Colby's formula” value (shortened to “Expected value, calculated”) is, setting by setting: under setting [1], 50%; under setting [2], 50%; under setting [3], 60%; under setting [4], 60%; under setting [5], 78%; under setting [6], 80%. Also, the “Expected value, calculated” value under setting [7] is reported as 50%; the “Expected value, calculated” value under setting [8] is reported as 50%; the “Expected value, calculated” value under setting [9] is 60%; the “Expected value, calculated” value under setting [10] is reported as 60%; the “Expected value, calculated” value under setting [11] is 78%; the “Expected value, calculated” value under setting [12] was 80%. For the same molecule, the Efficacy (0.2 ppm a.i.) was 0%; the Efficacy (1 ppm a.i.) is listed as 0%; the Efficacy (5 ppm a.i.) is listed as 20%; the Efficacy (10 ppm a.i.) is recorded as 20%; the Efficacy (25 ppm a.i.) is 55%; the Efficacy (50 ppm a.i.) was 60%.
In the case of `Cn1cc(C(=O)Nc2ccccc2C2CC2C2CC2)c(C(F)F)n1` (stereo not drawn) [Sedaxane], the synergistic effect result (applied to TMG 803, 0.2 ppm a.i. to 1 ppm a.i. versus 5 ppm a.i. to 25 ppm a.i.) was “higher synergism”. Further, the Actual efficacy under setting [2] is 82%; the Actual efficacy under setting [3] was determined as 90%; the Actual efficacy under setting [4] was found to be 98%; the Actual efficacy under setting [5] was 99%; the Actual efficacy under setting [7] came out at 50%; the Actual efficacy under setting [8] is given as 60%. In addition, the Actual efficacy worked out at 75% under setting [9], 95% under setting [10] and 100% under setting [11]. In addition, the “Expected value, calculated” value by setting is: under setting [2], 65%; under setting [3], 79%; under setting [4], 90%; under setting [5], 99%; under setting [7], 30%; under setting [8], 30%. Besides, the “Expected value, calculated” value under setting [9] is reported as 58%; the “Expected value, calculated” value under setting [10] is listed as 79%; the “Expected value, calculated” value under setting [11] is given as 99%. In addition, the Efficacy (0.2 ppm a.i.) was determined as 0%; the Efficacy (1 ppm a.i.) is listed as 0%; the Efficacy (5 ppm a.i.) was found to be 40%; the Efficacy (10 ppm a.i.) is listed as 70%; the Efficacy (25 ppm a.i.) turned out to be 98%.
Take `CC(C)C1C2CCC1c1c(NC(=O)c3cn(C)nc3C(F)F)cccc12` (stereo not drawn) [Isopyrazam]: the Actual efficacy by setting is: under setting [7], 55%; under setting [8], 80%. Moreover, the “Expected value, calculated” value runs as follows: under setting [7], 30%; under setting [8], 65%. Moreover, the Efficacy (0.2 ppm a.i.) came to 0% and the Efficacy (1 ppm a.i.) amounted to 50%.
Regarding `Cn1cc(C(=O)Nc2ccccc2-c2cc(F)c(F)c(F)c2)c(C(F)F)n1` [Fluxapyroxad, 3-(difluoromethyl)-1-methyl-N-(3′,4′,5′-trifluorobiphenyl-2-yl)-1H-pyrazole-4-carboxamide], the synergistic effect result (1 ppm a.i. applied to TMG 803, compared over all fungicides and rates) is given as “most pronounced synergistic effect”. Also, the Actual efficacy by setting is: under setting [7], 30%; under setting [8], 65%; under setting [9], 70%; under setting [10], 80%; under setting [11], 97%. For the same molecule, the “Expected value, calculated” value reads like this: under setting [7], 20%; under setting [8], 26%; under setting [9], 68%; under setting [10], 76%; under setting [11], 98%. Moreover, the Efficacy runs as follows: (0.2 ppm a.i.) 0%; (1 ppm a.i.) 7%; (5 ppm a.i.) 60%; (10 ppm a.i.) 70%; (25 ppm a.i.) 98%.
Take `Cn1cc(C(=O)Nc2ccc(F)cc2-c2ccc(Cl)c(Cl)c2)c(C(F)F)n1` [Bixafen, N-(3′,4′-dichloro-5-fluoro-1,1′-biphenyl-2-yl)-3-(difluoromethyl)-1-methyl-1H-pyrazole-4-carboxamide]: the synergistic effect entry (applied to TMG 803, concentrations from 100 ppm a.i. to 25 ppm a.i.) is recorded as “highest synergistic effect”. The Actual efficacy is 60% under setting [7]; 70% under setting [8]; 75% under setting [9]; 80% under setting [10]; 96% under setting [11]; 98% under setting [12]. Under setting [13], the Actual efficacy is listed as 99%. In addition, the “Expected value, calculated” value runs as follows: under setting [7], 55%; under setting [8], 58%; under setting [9], 64%; under setting [10], 73%; under setting [11], 80%; under setting [12], 82%. For the same molecule, the “Expected value, calculated” value under setting [13] is given as 78%. Besides, the Efficacy came out at 0% (0.2 ppm a.i.); 7% (1 ppm a.i.); 20% (5 ppm a.i.); 40% (10 ppm a.i.); 55% (25 ppm a.i.); 60% (50 ppm a.i.). Also, where the note is “100 ppm a.i.”, the Efficacy was 50%.
